Our source for the EC50 values is patent US10654834B2 (Venenum Biodesign, LLC, priority 2016, dated 2020).

The subject of one test is Mouse STC-1 cells. The test is described as follows: STC-1 GLP-1 assay (GLP-1 secretion). Format: cell-based. To be noted: Mouse STC-1 cells, GLP-1 secretion, 2 h; read-out: Mouse STC-1 HTRF GLP-1 Activity (EC50). A digest of the protocol: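 Mouse STC-1 cells were plated two days ahead in DMEM with 10% charcoal-dextran stripped FBS, then exposed to compound in HBSS with protease inhibitors, DPP-IV inhibitor and 0.1% fatty acid free BSA for 2 h at 37° C. Active GLP-1 in supernatant was quantified by HTRF; EC50 derived from 12-point half-log curves.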

In the next test the target is T1, mouse TGR5 receptor (Mus musculus, UniProt Q80SS6).
T1 construct: host or cells: HEK293-EBNA (293 c18, ATCC CRL10852)
T1 sequence (Q80SS6 1-329): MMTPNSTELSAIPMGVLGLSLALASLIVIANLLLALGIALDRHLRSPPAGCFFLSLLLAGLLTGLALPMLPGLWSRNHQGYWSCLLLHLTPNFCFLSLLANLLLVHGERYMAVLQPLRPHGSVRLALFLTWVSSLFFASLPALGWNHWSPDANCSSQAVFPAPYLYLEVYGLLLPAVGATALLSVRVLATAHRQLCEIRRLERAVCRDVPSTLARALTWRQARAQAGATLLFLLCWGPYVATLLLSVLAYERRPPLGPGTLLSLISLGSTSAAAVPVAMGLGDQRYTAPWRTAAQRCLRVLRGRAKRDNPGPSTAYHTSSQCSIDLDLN
Kind of test: Mouse TGR5 HTRF cAMP production assay (HEK293-EBNA cells, Cisbio cAMP HiRange kit). The settings on record: HEK293-EBNA cells overexpressing mouse TGR5, HTRF cAMP assay. Format: cell-based. In short, it runs like this:
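HEK293-EBNA cells stably expressing mouse TGR5 (episomal vector) were suspended in serum-free DMEM with 500 μM IBMX and exposed to 12-point half-log compound dilutions for 1 h at room temperature. cAMP was detected by HTRF (d2-cAMP/anti-cAMP cryptate, 1 h, room temperature), giving EC50 from duplicates.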
A general note: Time-resolved FRET reads energy transfer from a long-lived donor to a nearby acceptor.

For `N#Cc1ccc(CCNC(=O)[C@@H]2CCCN2c2cc(N3CCC(CO)CC3)nc(C(F)(F)F)n2)cc1` [Compound 1, (S)—N-(4-cyanophenethyl)-1-(6-(4-(hydroxymethyl)piperidin-1-yl)-2-(trifluoromethyl)pyrimidin-4-yl)pyrrolidine-2-carboxamide], in the test on Mouse STC-1 cells, the EC50 (usually the concentration at which the effect is half-maximal) lay in the range of 100 to 999 nM.

Consider `N#Cc1ccc(CCNC(=O)[C@@H]2CCCN2c2cc(N3CCC(CCCC(=O)NCP(=O)(O)O)CC3)nc(C(F)(F)F)n2)cc1` [Compound 64, (S)-((4-(1-(6-(2-((4-cyanophenethyl)carbamoyl)pyrrolidin-1-yl)-2-(trifluoromethyl)pyrimidin-4-yl)piperidin-4-yl)butanamido)methyl)-phosphonic acid], for which the EC50 in the test with Mouse STC-1 cells was 100 to 999 nM; at mouse TGR5 receptor it was < 100 nM.

In the case of `N#Cc1ccc(CCNC(=O)[C@@H]2CCCN2c2cc(N3CCC(CCCC(=O)NCS(=O)(=O)O)CC3)nc(C(F)(F)F)n2)cc1` [Compound 66, (S)-(4-(1-(6-(2-((4-cyanophenethyl)carbamoyl)pyrrolidin-1-yl)-2-(trifluoromethyl)pyrimidin-4-yl)piperidin-4-yl)butanamido)-methanesulfonic acid], the EC50 in the test with Mouse STC-1 cells and on mouse TGR5 receptor was < 100 nM throughout.

For the molecule `N#Cc1ccc(CCNC(=O)[C@@H]2CCCN2c2cc(N3CCC(CCCC(=O)NCC(N)=O)CC3)nc(C(F)(F)F)n2)cc1` [Compound 68, (S)-1-(6-(4-(4-((2-amino-2-oxoethyl)amino)-4-oxobutyl)piperidin-1-yl)-2-(trifluoromethyl)pyrimidin-4-yl)-N-(4-cyanophenethyl)pyrrolidine-2-carboxamide], the figures for the EC50 with Mouse STC-1 cells and at mouse TGR5 receptor were 100 to 999 nM and < 100 nM, respectively.

`N#Cc1ccc(CCNC(=O)[C@@H]2CCCN2c2cc(N3CCC(CCCC(=O)N[C@@H](CCCNC(=N)N)C(=O)O)CC3)nc(C(F)(F)F)n2)cc1` [Compound 72, (S)-2-(4-(1-(6-((S)-2-((4-cyanophenethyl)carbamoyl)pyrrolidin-1-yl)-2-(trifluoromethyl)pyrimidin-4-yl)piperidin-4-yl)butanamido)-5-guanidinopentanoic acid]: the concentration giving a half-maximal response (EC50) in the test on Mouse STC-1 cells was 100 to 999 nM; on mouse TGR5 receptor, < 100 nM.

As for `N#Cc1ccc(CCNC(=O)[C@@H]2CCCN2c2cc(N3CCC(CCCC(=O)N[C@@H](CCC(=O)O)C(=O)O)CC3)nc(C(F)(F)F)n2)cc1` [Compound 76, (S)-2-(4-(1-(6-((S)-2-((4-cyanophenethyl)carbamoyl)pyrrolidin-1-yl)-2-(trifluoromethyl)pyrimidin-4-yl)piperidin-4-yl)butanamido)-pentanedioic acid], the EC50 in the test with Mouse STC-1 cells is 100 to 999 nM; on mouse TGR5 receptor, < 100 nM.

As for `N#Cc1ccc(CCNC(=O)[C@@H]2CCCN2c2cc(N3CCC(CCNC(=O)NCCS(=O)(=O)O)CC3)nc(C(F)(F)F)n2)cc1` [Compound 78, (S)-2-(3-(2-(1-(6-(2-((4-cyanophenethyl)carbamoyl)pyrrolidin-1-yl)-2-(trifluoromethyl)pyrimidin-4-yl)piperidin-4-yl)ethyl)ureido)ethanesulfonic acid], the EC50 with Mouse STC-1 cells and at mouse TGR5 receptor was < 100 nM throughout.

Consider `N#Cc1ccc(CCNC(=O)[C@@H]2CCCN2c2cc(N3CCC(CCNC(=O)NCCS(N)(=O)=O)CC3)nc(C(F)(F)F)n2)cc1` [Compound 80, (S)-N-(4-cyanophenethyl)-1-(6-(4-(2-(3-(2-sulfamoylethyl)ureido)-ethyl)piperidin-1-yl)-2-(trifluoromethyl)pyrimidin-4-yl)pyrrolidine-2-carboxamide], for which the EC50 in the test with Mouse STC-1 cells is 100 to 999 nM; at mouse TGR5 receptor, < 100 nM.

On to `N#Cc1ccc(CCNC(=O)[C@@H]2CCCN2c2cc(N3CCC(CCNC(=O)NCCC(=O)O)CC3)nc(C(F)(F)F)n2)cc1` [Compound 81, (S)-3-(3-(2-(1-(6-(2-((4-cyanophenethyl)carbamoyl)pyrrolidin-1-yl)-2-(trifluoromethyl)pyrimidin-4-yl)piperidin-4-yl)ethyl)ureido)-propanoic acid], for which the EC50 in the test with Mouse STC-1 cells was 100 to 999 nM; at mouse TGR5 receptor it was < 100 nM.

Regarding `O=C(NCCC1CCN(c2cc(N3CCC[C@H]3C(=O)NCCc3ccc(C(F)(F)F)cc3)nc(C(F)(F)F)n2)CC1)NCCS(=O)(=O)O` [Compound 86, (S)-2-(3-(2-(1-(2-(trifluoromethyl)-6-(2-((4-(trifluoromethyl)phenethyl)-carbamoyl)pyrrolidin-1-yl)pyrimidin-4-yl)piperidin-4-yl)ethyl)ureido)-ethanesulfonic acid], the EC50 in the test with Mouse STC-1 cells and at mouse TGR5 receptor was < 100 nM in each case.

Consider `N#Cc1ccc(CCNC(=O)[C@@H]2CCCN2c2cc(N3CCC(COCC(=O)O)CC3)nc(C(F)(F)F)n2)cc1` [Compound 88, (S)-2-((1-(6-(2-((4-cyanophenethyl)carbamoyl)pyrrolidin-1-yl)-2-(trifluoromethyl)pyrimidin-4-yl)piperidin-4-yl)methoxy)acetic acid], for which the values for the EC50 in the test with Mouse STC-1 cells and on mouse TGR5 receptor were 100 to 999 nM and < 100 nM, respectively.

With `CS(=O)(=O)NCCNC(=O)CCCC1CCN(c2cc(N3CCC[C@H]3C(=O)NCCc3ccc(C(F)(F)F)cc3)nc(C(F)(F)F)n2)CC1` [Compound 91, (S)-1-(6-(4-(4-((2-(methylsulfonamido)ethyl)amino)-4-oxobutyl)piperidin-1-yl)-2-(trifluoromethyl)pyrimidin-4-yl)-N-(4-(trifluoromethyl)phenethyl)pyrrolidine-2-carboxamide], the EC50 with Mouse STC-1 cells and on mouse TGR5 receptor was < 100 nM throughout.

`CS(=O)(=O)NCCNC(=O)CCCC1CCN(c2cc(N3CCC[C@H]3C(=O)NCCc3ccc(C#N)cc3)nc(C(F)(F)F)n2)CC1` [Compound 93]: the EC50 with Mouse STC-1 cells and on mouse TGR5 receptor was < 100 nM throughout.

As for `O=C(CCCC1CCN(c2cc(N3CCC[C@H]3C(=O)NCCc3ccc(C(F)(F)F)cc3)nc(C(F)(F)F)n2)CC1)NCCNc1ncnc2c1ncn2[C@@H]1O[C@H](CO)C(O)C1O` (stereo partly drawn) [Compound 96, (2S)-1-(6-(4-(4-((2-((9-((2R,5R)-3,4-dihydroxy-5-(hydroxymethyl)-tetrahydrofuran-2-yl)-9H-purin-6-yl)amino)ethyl)amino)-4-oxobutyl)piperidin-1-yl)-2-(trifluoromethyl)-pyrimidin-4-yl)-N-(4-(trifluoromethyl)-phenethyl)-pyrrolidine-2-carboxamide], the EC50 in the test on Mouse STC-1 cells and at mouse TGR5 receptor was < 100 nM each time.

Regarding `N#Cc1ccc(CCNC(=O)[C@@H]2CCCN2c2cc(N3CCC(CCCC(=O)NCCNc4cc(C(=O)O)ncn4)CC3)nc(C(F)(F)F)n2)cc1` [Compound 101, (S)-6-((2-(4-(1-(6-(2-((4-cyanophenethyl)carbamoyl)pyrrolidin-1-yl)-2-(trifluoromethyl)pyrimidin-4-yl)piperidin-4-yl)butanamido)ethyl)amino)-pyrimidine-4-carboxylic acid], the EC50 with Mouse STC-1 cells and at mouse TGR5 receptor was < 100 nM in each case.
